# Data from patent publication US6723531B2, “Method for modulating expression of exogenous genes in mammalian systems, and products related thereto” (The Salk Institute for Biological Studies, priority 1996, dated 2004).
# “Also recorded” adds a separate entry of the source.
# Key:
# [1] = test system: N13 cells (293 cells with VpEcR, RXR and ecdysone inducible reporter); assay: Dose-response assay in N13 cells (β-galactosidase and luciferase reporters); format: cell-based; details: 36 hours
# Method: (§1) N13 cells were grown with varying concentrations of muristerone for 36 hours and then assayed for β-galactosidase activity (open squares) by standard ONPG assay or for luciferase activity (closed circles). […] N13 cells were grown in separate wells in the presence of 1 μM muristerone, harvested at varying times, and assayed for luciferase activity as described in Example 3.
# FIG. 5 compares the dose-dependent activation of N13 cells with muristerone (X) and ponasterone A (open circles).
# A dose-response assay was conducted by growing N13 cells with varying concentrations of muristerone for 36 hours and then assaying for β-galactosidase activity (using the well-known ONPG assay), or the cells were assayed for luciferase activity. […] One-hundred fold induction was achieved by muristerone concentrations as low as 100 nM (FIG. 3A).
# A dose-response assay was conducted as described in Example 3, by growing N13 cells with varying concentrations of muristerone or ponasterone A for 36 hours and then assaying for β-galactosidase activity (using the well-known ONPG assay), or the cells were assayed for luciferase activity.
# [2] = test system: N13 cells (293 cells with VpEcR, RXR and ecdysone inducible reporter); assay: X-gal staining of stable cell line N13; format: cell-based; details: 24 hours of treatment with 1 μM muristerone; 3 hours of staining
# Method: Stable cell lines were generated containing the modified ecdysone receptor VpEcR, a heterodimeric partner (RXR), and an ecdysone inducible reporter (FIG. 2). 293 cells were transfected with the following linearized plasmids, pRC-ESHβ, EcREx5-ΔMTV-Luc, CMX-VpEcR, and CMX-hRXRa. The following day, the cells were split 1:10 and were allowed to recover one day prior to selection with 1 mg/ml G418 (GIBCO). After 14 days of selection, 14 individual clones were isolated and grown separately in the presence of 0.5 mg/ml G418.
# One of these cell lines, N13, was grown in the presence or absence of 1 μM muristerone for 20 hours. Cell lysates were then assayed for β-galactosidase and luciferase activities as described in Example 1. X-gal staining was performed on the stable cell lines. Cells were fixed briefly with 10% formaldehyde in PBS and then stained with X-Gal (Molecular Probes, Eugene, Oreg.) for 2 to 6 hours. After 24 hours of treatment with 1 μM muristerone, 100% of the cells turned dark blue after 3 hours of staining. Thus, mammalian cells containing the modified ecdysone receptor VpEcR, a heterodimeric partner (RXR), and a reporter gene construct regulated by a modified ecdysone response element, function to efficiently express an exogenous gene in response to a ligand, e.g., ecdysone.
# [3] = test system: pregnant mice; assay: Teratogenic study in pregnant mice; format: in vivo; details: 20 mg in sesame oil, mother and pups observed three months
# [4] = test system: N13 cells (293 cells with VpEcR, RXR and ecdysone inducible reporter); assay: Kinetics of induction in N13 cells (luciferase activity); format: cell-based; details: 1 μM muristerone
# Method: as §1
# Finally, the kinetics of muristerone mediated induction was measured. N13 cells were grown in separate wells in the presence of 1 μM muristerone, harvested at varying times, and assayed for luciferase activity. Inductions of 100-fold in 3 hrs., 1000 fold in 8 hrs., and maximal effects of 20,000 fold after 20 hours of treatment were observed (FIG. 3B).
# [5] = test system: CV-1 cells transfected with CMX-GEcR, CMX-hRXRa, and EcREx5-DMTV-Luc; assay: Bioavailability study: serum of injected mice tested on transfected CV-1 cells; format: in vivo
# Method: For muristerone bioavailability studies, adult mice were injected intraperitoneally with sesame oil with or without […] of muristerone, and were subsequently sacrificed for serum collection. After twelve hours, blood was drawn from the mice, and the serum was isolated by brief centrifugation of the whole blood. In order to conduct transfection assays to test for muristerone activity, serum from sesame oil injected mice was divided, and half was supplemented with muristerone to a final concentration of 10 μM. The three batches of mouse serum were diluted 1:10 in DMEM and placed onto CV-1 cells transfected with CMX-GEcR, CMX-hRXRa, and EcREx5-DMTV-Luc.
# [6] = test system: adult mice; assay: Toxicity study in adult mice; format: in vivo; details: intraperitoneal, 20 mg in sesame oil, observed approximately two months
# Method: In order to use muristerone as a potential hormone in mice, its toxicity and bioavailability was examined. For toxicity studies, adult mice were injected intraperitonealy with 20 mg of muristerone A suspended in sesame oil. The mice were then observed for approximately two months. […] In addition to the inert qualities of muristerone (an ecdysone), overexpression of VpEcR and RXR appears not to be toxic.
# [7] = target: T1, ecdysone receptor (EcR)/USP (Drosophila melanogaster, UniProt P34021); assay: Transient transfection reporter assay in CV-1 cells, ecdysone receptor with USP; format: cell-based; details: 1 μM muristerone A, unmodified ecdysone receptor
# T1 construct: expressed in transfected cells; host or cells: CV-1 cells
# T1 sequence (P34021 1-878): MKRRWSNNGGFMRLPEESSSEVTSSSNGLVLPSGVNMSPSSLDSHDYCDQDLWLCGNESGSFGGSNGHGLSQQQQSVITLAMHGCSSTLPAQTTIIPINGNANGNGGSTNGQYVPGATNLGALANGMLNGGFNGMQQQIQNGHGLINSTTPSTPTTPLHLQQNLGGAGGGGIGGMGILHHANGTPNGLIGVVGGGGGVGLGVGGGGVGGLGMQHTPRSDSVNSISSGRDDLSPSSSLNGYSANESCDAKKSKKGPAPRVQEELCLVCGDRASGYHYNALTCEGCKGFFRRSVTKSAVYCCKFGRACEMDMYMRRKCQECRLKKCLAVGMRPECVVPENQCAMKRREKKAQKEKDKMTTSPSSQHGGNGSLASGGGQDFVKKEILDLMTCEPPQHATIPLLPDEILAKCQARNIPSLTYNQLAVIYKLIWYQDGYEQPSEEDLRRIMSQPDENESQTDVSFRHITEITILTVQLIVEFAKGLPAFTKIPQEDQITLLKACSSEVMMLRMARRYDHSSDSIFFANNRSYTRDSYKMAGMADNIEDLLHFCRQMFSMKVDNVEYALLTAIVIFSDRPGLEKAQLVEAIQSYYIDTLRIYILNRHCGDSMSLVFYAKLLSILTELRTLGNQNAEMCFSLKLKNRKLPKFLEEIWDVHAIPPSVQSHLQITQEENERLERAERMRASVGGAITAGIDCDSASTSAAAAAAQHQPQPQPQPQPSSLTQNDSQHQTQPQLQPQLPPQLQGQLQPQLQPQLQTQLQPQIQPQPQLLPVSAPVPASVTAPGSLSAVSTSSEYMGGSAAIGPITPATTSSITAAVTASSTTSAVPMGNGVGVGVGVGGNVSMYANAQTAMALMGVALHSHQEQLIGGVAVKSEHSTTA
# T1 sequence (P20153 1-508 partner): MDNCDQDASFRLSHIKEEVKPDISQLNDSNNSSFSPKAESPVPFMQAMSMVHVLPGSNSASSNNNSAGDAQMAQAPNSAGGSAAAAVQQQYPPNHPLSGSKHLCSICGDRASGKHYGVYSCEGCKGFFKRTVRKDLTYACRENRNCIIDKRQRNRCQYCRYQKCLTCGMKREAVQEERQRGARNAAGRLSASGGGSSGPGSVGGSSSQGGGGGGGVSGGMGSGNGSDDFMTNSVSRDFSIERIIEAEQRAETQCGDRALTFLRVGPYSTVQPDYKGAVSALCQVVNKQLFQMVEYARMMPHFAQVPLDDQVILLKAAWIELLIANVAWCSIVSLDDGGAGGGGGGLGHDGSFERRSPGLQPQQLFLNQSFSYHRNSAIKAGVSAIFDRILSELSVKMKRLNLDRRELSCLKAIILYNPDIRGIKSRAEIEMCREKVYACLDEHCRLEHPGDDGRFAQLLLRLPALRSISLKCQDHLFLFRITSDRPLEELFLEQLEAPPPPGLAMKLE
# Method: CV-1 cells were maintained in DMEM supplemented with 10%. Fetal Bovine Serum. Transient transfections were performed using DOTAP transfection reagent (Boehringer-Mannheim). Transfections using β-galactosidase as the reporter were assayed either by Galactolight luminescent assay (Tropix, Bedford, Mass.) or by standard liquid ONPG assay (Sigma, St. Louis, Mo.). The values were normalized by co-transfection of CMX-luciferase. Transfections using luciferase as the reporter were assayed by standard techniques using luciferin and ATP. These values were normalized by co-transfection of CMX-β-galactosidase. Hormone treated cells were treated with ethanol, 50 μM Juvenile Hormone III (Sigma), 1 μM muristerone A (Zambon, Bresso, IT), or 1 μM dexamethasone (Sigma) unless otherwise noted.
# To maximize the sensitivity of the invention ecdysone inducible system, modifications of the ecdysone receptor were made. The N-terminal transactivation domain of the ecdysone receptor was replaced by the corresponding domain of the glucocorticoid receptor (GR), resulting in the modified ecdysone receptor GEcR (See FIG. 1D). CV-1 cells were transfected with the plasmid CMX-GEcR encoding the modified ecdysone receptor as discussed above. […]
# [8] = test system: ecdysone inducible promoter (CD3-VpEcR; CD3-RXR; ESHβ); assay: Northern blot of receptor/reporter double transgenic mice; format: in vivo; details: 10 mg intraperitoneal, RNA 48 hours after treatment, thymus
# Method: To produce transgenic mice, the following DNA constructs were prepared and subsequently injected into fertilized eggs: CD3-VpEcR, CD3-RXR, ESHβ (Lee et al., J. Exp. Med. 175:1013-1025 (1992)). Two separate lines of transgenic mice were generated harboring either an ecdysone inducible reporter, ESHβ, or a T-cell specific expression construct of VpEcR and RXR, respectively. The former are referred to as reporter mice, the latter are referred to as receptor mice, and double transgenic mice are referred to as receptor/reporter mice. Constructs CD3-VpEcR and CD3-RXR were mixed and coinjected, while ESHB was injected alone. Primary genotyping was performed by Southern blot analysis and the transmission of transgenic mice was monitored by dot blot analysis. Receptor mice were analyzed for VpEcR and RXR expression by Northern blot analysis of RNA collected from these mice. For Northern blot analysis, 15 μg of total RNA obtained from the thymus, and various tissues as a control, was run on a denaturing gel and blotted onto a nitrocellulose membrane. The blot was probed with a radiolabeled β-gal-specific probe and exposed on film for 2 days. These receptor mice were healthy, fertile, and appeared normal by visual inspection. In addition, the transgene was transferred to the offspring as expected by Mendelian genetics. […]
structure (smiles),measurement,setting,value
CC(C)CC[C@@H](O)[C@](C)(O)[C@H]1CC[C@@]2(O)C3=CC(=O)[C@]4(O)C[C@@H](O)[C@@H](O)C[C@]4(C)[C@H]3[C@H](O)C[C@]12C [muristerone A],fold induction,[1]; concentrations as low as 100 nM,One-hundred
same,inducibility of β-galactosidase and luciferase reporters,[1]; final concentration 10 μM,~3 orders of magnitude
same,cells turned dark blue (X-gal staining),[2],100%
same,teratogenicity,[3],"neither toxic, teratogenic"
same,induction of luciferase activity,[4]; 3 hrs,100 fold
same,induction of luciferase activity,[4]; 8 hrs,1000 fold
same,maximal induction of luciferase activity,[4]; after 20 hours of treatment,"20,000 fold"
same,luciferase activity of serum from treated mice,"[5]; intraperitoneal 10 μmg in sesame oil, serum after twelve hours, diluted 1:10 in DMEM",comparable to that seen from untreated mouse serum supplemented with 1 μM muristerone
same,activity when injected into mice,"[5]; mice, intraperitoneal",maintains its activity
same,inactivation or blunting of activity by serum proteins,[5]; mouse serum,nor inactivated by serum binding proteins; also recorded: little or no blunting of activity
same,toxicity,[6],neither toxic
same,muristerone responsiveness (fold induction),[7],3 fold
same,induction from an ecdysone inducible promoter (Northern blot),[8],significant induction
